Data set [1] concerns Human alphaherpesvirus 1. The data set is described as follows: Antiviral activity against HSV-1 infected in african green monkey Vero cells assessed as inhibition of viral replication after 48 hrs by GFP reduction assay. Type of data set: functional, organism-based.
Data set [2] deals with Human alphaherpesvirus 1. Briefly: Antiviral activity against HSV-1 infected in african green monkey Vero cells assessed as inhibition of viral replication at 200 uM after 48 hrs by GFP reduction assay. Type of data set: functional, organism-based.
Data set [3] relates to Human alphaherpesvirus 1. The data set is described as follows: Antiviral activity against HSV-1 infected in african green monkey Vero cells assessed as inhibition of viral replication at 50 uM after 48 hrs by GFP reduction assay. The format is functional, organism-based.
The test system of data set [4] is Human alphaherpesvirus 1. Briefly: Antiviral activity against HSV-1 infected in african green monkey Vero cells assessed as inhibition of GFP gene expression after 48 hrs by RT-PCR analysis. Type of data set: functional, organism-based.
The subject of data set [5] is Human alphaherpesvirus 1. Briefly: Antiviral activity against HSV-1 infected in african green monkey Vero cells assessed as inhibition of viral ICP4 gene expression after 48 hrs by RT-PCR analysis. The format is functional, organism-based.
The test system of data set [6] is Human alphaherpesvirus 1. The data set is described as follows: Antiviral activity against HSV-1 infected in african green monkey Vero cells assessed as inhibition of viral replication at 48 uM after 48 hrs by plaque reduction assay. The format is functional, organism-based.
Data set [7] concerns Human alphaherpesvirus 1. Briefly: Antiviral activity against HSV-1 infected in african green monkey Vero cells assessed as inhibition of viral replication at 50 uM after 48 hrs by GFP reduction assay relative to acyclovir. The format is functional, organism-based.
The test system of data set [8] is Human alphaherpesvirus 1. The data set is described as follows: Antiviral activity against HSV-1 infected in african green monkey Vero cells assessed as inhibition of viral replication at 50 uM treated for 24 hrs measured 24 hrs after drug washout by GFP reduction assay. Type of data set: functional, organism-based.
For data set [9], the system named is Human alphaherpesvirus 1. Briefly: Antiviral activity against HSV-1 infected in african green monkey Vero cells assessed as inhibition of viral replication at 48 uM after 48 hrs by GFP reduction assay. Type of data set: functional, organism-based.
Data set [10] concerns Human alphaherpesvirus 1. The data set is described as follows: Antiviral activity against HSV-1 infected in african green monkey Vero cells assessed as inhibition of viral replication at 50 uM treated 2 hrs after post infection by GFP reduction assay. The format is functional, organism-based.
Data set [11] relates to Vero. Briefly: Cytotoxicity against african green monkey Vero cells up to 200 uM. The settings on record: chlorocebus sabaeus. Type of data set: cell-based.

Activity calls are given as the source filed them. No cut-off for these calls is given here.

For `C[N+](C)(CC#N)CCCN1c2ccccc2Sc2ccc(C(F)(F)F)cc21`, the inhibition result in data set [1] is “inactive”.

`C#CC[N+](C)(C)CCCN1c2ccccc2Sc2ccccc21`: in data set [1], the inhibition result was “inactive”.

Take `C=CC[N+](C)(C)CCCN1c2ccccc2Sc2ccc(C(F)(F)F)cc21`: in data set [1], the inhibition result was “inactive”.

As to `CCCC[N+](C)(C)CCCN1c2ccccc2Sc2ccc(C(F)(F)F)cc21`, the inhibition entry in data set [2] is “Active”.

`C[N+](C)(CCCN1c2ccccc2Sc2ccc(C(F)(F)F)cc21)Cc1ccccc1Cl`: in data set [3], the inhibition entry is “inactive”. Besides, the inhibition result in data set [2] is “Active”.

As to `C[N+](C)(CCCN1c2ccccc2Sc2ccc(C(F)(F)F)cc21)Cc1ccccc1`, the inhibition entry in [1] was “inactive”.

Turning to `C[N+](C)(CCCN1c2ccccc2Sc2ccc(C(F)(F)F)cc21)Cc1cccc(Cl)c1`, the inhibition result in [3] was “inactive”. Further, the inhibition result in data set [2] was “Active”.

With `O[C@]12C=C(c3nccc4c3[nH]c3ccccc34)[C@@H]3CCN(CCCC/C=C\CC1)C[C@@]31C[C@@H]3/C=C\CCCCN3[C@H]12`, the inhibition result in data set [4] was “inactive”.

For `C[N+](C)(CCCN1c2ccccc2Sc2ccc(C(F)(F)F)cc21)Cc1ccc(Cl)cc1.[Cl-]`, the inhibition entry in data set [5], in [6], in data set [7], in [9] and in data set [4] was “Active” in each case. Moreover, the inhibition result in [8] and in [10] was “inactive” in each case. The Activity entry in data set [11] is “Non-toxic”.

With `C#CC[N+](C)(C)CCCN1c2ccccc2Sc2ccc(C(F)(F)F)cc21`, in data set [1], the inhibition result is “inactive”.

As for `Nc1nc2c(ncn2COCCO)c(=O)[nH]1`, the inhibition result in data set [5], in data set [3], in data set [6], in data set [8], in data set [9] and in data set [4] was “Active” in each case. In addition, the inhibition entry in [10] is “Active”.

The values above are taken from ChEMBL document CHEMBL2069202, “Antiviral activity and synthesis of quaternized promazine derivatives against HSV-1” (Bioorg Med Chem Lett, 2012).
